From patent US20260191838A1, “COMBINATIONS COMPRISING A MENIN-MLL INHIBITOR AND A BCL-2 INHIBITOR” (JANSSEN PHARMACEUTICA NV, priority 2022, published 2026)

Assays:
[1] = test system: MOLM-13 tumors in NSG mice; assay: Efficacy (survival) in disseminated MOLM-13 (KMT2A-rearranged) IV model in NSG mice; type: in vivo; details: NSG mice with established MOLM-13 tumors, 4 weeks treatment; azacitidine 2 mg/kg ip QD × 7, venetoclax 100 mg/kg po QD × 28, Compound 51 2 mg/kg po QD × 28 (Table 6)
Description: 4) Efficacy of Menin-KMT2A Inhibitor in Combination with Venetoclax, and Optionally, Azacitidine, in MOLM-13 (KMT2A-Rearranged) IV Model in NSG Mice
Compound 51 was formulated in purified pyrogen-free deionized water, pH 4.0 and prepared to reach a total volume of 8 mL/kg. Doses were adjusted by individual body weight each day. Working stocks of Compound 51 were prepared once per week for each study and stored at 25° C.
Female NSG (NOD.Cg-Prkdc^scid Il2rg^tm1Wj1/SzJ) mice were used when they were approximately 6 to 8 weeks of age and weighed approximately 25 g. All animals could acclimate and recover from any shipping-related stress for a minimum of 7 days prior to experimental use. Autoclaved water and irradiated food were provided ad libitum, and the animals were maintained on a 12 hour light and dark cycle. Cages, bedding, and water bottles were autoclaved before use and changed weekly. The tissue culture and cell injection reagents are summarized below in Table 5.
Tumor Model and Cell Culture Method
Human AML MOLM-13 cells were cultured at 37° C., 5% CO2 in the indicated complete culture media (RPMI 1640+10% HI-FBS+2 mM L-glutamine+50 μg/ml Gentamycin). Cells were harvested while in logarithmic growth and resuspended in cold (4° C.) Roswell Park Memorial Institute (RPMI) 1640 in serum-free medium.
For the disseminated MOLM-13 model, each mouse received 1×10^5 cells via IV injection in a total volume of 0.2 mL using a 26-gauge needle.
Day 0 is the day of tumor cell implantation and study initiation.
Mice bearing IV MOLM-13 xenograft tumors were randomly assigned to treatment groups 5 days post-tumor cell engraftment.
Animals were monitored daily for clinical signs related to either compound toxicity or tumor burden (i.e., hind limb paralysis, lethargy, etc.).
For survival assessment, results were plotted as the percentage survival against days post tumor implant. Negative clinical signs and/or ≥20% body weight loss was used as a surrogate endpoint for death. Median survival was determined utilizing Kaplan-Meier survival analysis. The percent increased life span (ILS) was calculated as: ((median survival day of treated group−median survival day of control group)/median survival day of control group)×100. Animals failing to reach the surrogate endpoint due to adverse clinical signs or death unrelated to treatment were censored for the survival assessment. As defined by NCI criteria, ≅25% ILS is considered biologically significant. (Johnson J I et al. Br J Cancer. 2001. 84(10), 1424-1431).
Survival and body weight data were graphically represented utilizing Prism (Version 9). Statistical significance for body weights was evaluated as described above. Statistical significance was evaluated for Kaplan-Meier survival plots comparing therapeutic treatment group vs. appropriate vehicle-treated control using log-rank (Mantel-Cox) test in R software version 3.4.2. Differences between groups were considered significant when the p value was ≤0.05.
The disseminated MOLM-13 model described above was used to examine the efficacy of menin-KMT2A-inhibitor (formulated as described above) in combination with venetoclax (formulated in polyethylene glycol [PEG]-400/Phosal50/dimethyl sulfoxide [DMSO]), and optionally azacitidine (formulated in 0.9% saline). Treatment with compound(s) was initiated 5 days after cell injection. Compound 51 was given in the morning, and venetoclax or azacitidine was given in the afternoon, approximately 6-8 hr apart.

Menin/MLL = biological target: T1, Menin/MLL (Homo sapiens, UniProt O00255, T541A); assay: Menin/MLL homogenous time-resolved fluorescence (HTRF) assay; type: binding; details: 30 min incubation of test compound with terbium chelate-labeled menin
T1 construct: Menin (a.a 1-610-6×his tag, 2.3 mg/mL in 20 mM Hepes)
T1 sequence (O00255 with tags, fused parts or gaps T541A): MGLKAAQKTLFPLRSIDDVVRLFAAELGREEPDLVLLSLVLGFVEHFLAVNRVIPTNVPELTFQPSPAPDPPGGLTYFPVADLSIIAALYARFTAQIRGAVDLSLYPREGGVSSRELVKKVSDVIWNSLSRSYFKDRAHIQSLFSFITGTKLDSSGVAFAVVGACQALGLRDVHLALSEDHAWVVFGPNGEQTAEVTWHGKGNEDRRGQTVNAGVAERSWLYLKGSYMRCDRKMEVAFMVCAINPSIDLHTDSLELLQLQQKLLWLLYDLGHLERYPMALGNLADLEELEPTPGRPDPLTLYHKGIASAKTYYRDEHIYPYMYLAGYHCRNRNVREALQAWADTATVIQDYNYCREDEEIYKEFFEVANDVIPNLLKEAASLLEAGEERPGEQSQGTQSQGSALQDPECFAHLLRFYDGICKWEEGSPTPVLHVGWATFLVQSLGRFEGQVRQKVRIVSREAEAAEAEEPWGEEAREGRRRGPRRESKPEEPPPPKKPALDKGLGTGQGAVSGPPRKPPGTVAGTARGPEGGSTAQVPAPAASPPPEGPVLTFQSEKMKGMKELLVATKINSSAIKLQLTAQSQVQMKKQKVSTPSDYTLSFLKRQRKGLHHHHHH
Description: 1) Menin/MLL Homogenous Time-Resolved Fluorescence (HTRF) Assay
To an untreated, white 384-well microtiter plate was added 40 nL 200× test compound in DMSO and 4 μL 2× terbium chelate-labeled menin (vide infra for preparation) in assay buffer (40 mM Tris.HCl, pH 7.5, 50 mM NaCl, 1 mM DTT (dithiothreitol) and 0.05% Pluronic F-127). After incubation of test compound and terbium chelate-labeled menin for 30 min at ambient temperature, 4 μL 2×FITC-MBM1 peptide (FITC-β-alanine-[…]-NH2) (“FITC” means fluorescein isothiocyanate) in assay buffer was added, the microtiter plate centrifuged at 1000 rpm for 1 min and the assay mixtures incubated for 15 min at ambient temperature. The relative amount of menin-FITC-MBM1 complex present in an assay mixture is determined by measuring the homogenous time-resolved fluorescence (HTRF) of the terbium/FITC donor/acceptor fluorphore pair using an EnVision microplate reader (ex. 337 nm/terbium em. 490 nm/FITC em. 520 nm) at ambient temperature. The degree of fluorescence resonance energy transfer (the HTRF value) is expressed as the ratio of the fluorescence emission intensities of the FITC and terbium fluorophores (F^em 520 nm/F^em 490 nm). […]
Compound potencies were determined by first calculating % inhibition at each compound concentration according to equation 1: […]

MOLM14 cells = assay: Proliferation (spheroid) assay, MOLM14; type: cell-based; details: Homo sapiens, MOLM-14, 192 h, 8 days; read-out: spheroid assay_MOLM14 IC50
Description: The anti-proliferative effect of menin/MLL protein/protein interaction inhibitor test compounds was assessed in human leukemia cell lines. The cell line MOLM14 harbors a MLL translocation and expresses the MLL fusion protein MLL-AF9, respectively, as well as the wildtype protein from the second allele. OCI-AML3 cells that carry the NPM1c gene mutation were also tested. […] KO-52 was used as a control cell line containing two MLL (KMT2A) wildtype alleles in order to exclude compounds that display general cytotoxic effects.
MOLM14 cells were cultured in RPMI-1640 (Sigma Aldrich) supplemented with 10% heat-inactivated fetal bovine serum (HyClone), 2 mM L-glutamine (Sigma Aldrich) and 50 μg/ml gentamycin (Gibco). KO-52 and OCI-AML3 cell lines were propagated in alpha-MEM (Sigma Aldrich) supplemented with 20% heat-inactivated fetal bovine serum (HyClone), 2 mM L-glutamine (Sigma Aldrich) and 50 μg/ml gentamycin (Gibco).
In order to assess the anti-proliferative effects, 200 MOLM14 cells, […] or 300 KO-52 cells were seeded in 200 μl media per well in 96-well round bottom, ultra-low attachment plates (Costar, catalogue number 7007). Cell seeding numbers were chosen based on growth curves to ensure linear growth throughout the experiment. Test compounds were added at different concentrations and the DMSO content was normalized to 0.3%. Cells were incubated for 8 days at 37° C. and 5% CO2. Spheroid like growth was measured in real-time by live-cell imaging (IncuCyteZOOM, Essenbio, 4× objective) acquiring images at day 8. Confluence (%) as a measure of spheroid size was determined using an integrated analysis tool.
In order to determine the effect of the test compounds over time, the confluence in each well as a measure of spheroid size, was calculated. Confluence of the highest dose of a reference compound was used as baseline for the LC (Low control) and the confluence of DMSO treated cells was used as 0% cytotoxicity (High Control, HC).
Absolute IC50 values were calculated as percent change in confluence as follows: • LC=Low Control: cells treated with e.g. 1 μM of the cytotoxic agent staurosporin, or e.g. cells treated with a high concentration of an alternative reference compound • HC═High Control: Mean confluence (%) (DMSO treated cells) • % Effect=100−(100*(Sample-LC)/(HC-LC))
GraphPad Prism (version 7.00) was used to calculate the ICso. Dose-response equation was used for the plot of % Effect vs Log10 compound concentration with a variable slope and fixing the maximum to 100% and the minimum to 0%.

MEIS1 mRNA = MEIS1 mRNA expression assay (Quantigene Singleplex) in MOLM14 cells; type: cell-based; details: Homo sapiens, MOLM-14, 48 h
Description: 2b) MEIS1 mRNA Expression Assay
MEIS1 mRNA expression upon treatment of compound was examined by Quantigene Singleplex assay (Thermo Fisher Scientific). This technology allows for direct quantification of mRNA targets using probes hybridizing to defined target sequences of interest and the signal is detected using a Multimode plate reader Envision (PerkinElmer). The MOLM14 cell line was used for this experiment. Cells were plated in 96-well plates at 3,750 cells/well in the presence of increasing concentrations of compounds. After incubation of 48 hours with compounds, cells were lysed in lysis buffer and incubated for 45 minutes at 55° C. Cell lysates were mixed with human MEIS1 specific capture probe or human RPL28 (Ribosomal Protein L28) specific probe as a normalization control, as well as blocking probes. Cell lysates were then transferred to the custom assay hybridization plate (Thermo Fisher Scientific) and incubated for 18 to 22 hours at 55° C. Subsequently, plates were washed to remove unbound materials followed by sequential addition of preamplifiers, amplifiers, and label probe. Signals (=gene counts) were measured with a Multimode plate reader Envision. IC50s were calculated by dose-response modelling using appropriate software. For all non-housekeeper genes response equal counts corrected for background and relative expression. For each sample, each test gene signal (background subtracted) was divided by the normalization gene signal (RPL28: background subtracted). Fold changes were calculated by dividing the normalized values for the treated samples by the normalized values for the DMSO treated sample. Fold changes of each target gene were used for the calculation of IC50s.

## CC1(C)CCC(CN2CCN(c3ccc(C(=O)NS(=O)(=O)c4ccc(NCC5CCOCC5)c([N+](=O)[O-])c4)c(Oc4cnc5[nH]ccc5c4)c3)CC2)=C(c2ccc(Cl)cc2)C1 [Venetoclax, venetoclax, reference compound]
[1]
  % ILS (increased life span): 11%

## CC(=O)N1CC2CC(N3CC(Cc4cn(-c5ccc(F)cc5C(=O)N(C)C(C)C)c5cncc(C)c45)C3)CC2C1 (stereo not shown) [Compound 294a]
Menin/MLL
  IC50: 0.237 nM

## COCC(=O)N1CCC(C(C)N2CCC(Cc3cn(-c4ccc(F)cc4C(=O)N(C)C(C)C)c4cncc(C)c34)C2)CC1 (single isomer, unassigned) [Compound 117a]
MOLM14 cells
  IC50: 5 nM
MEIS1 mRNA
  IC50: 7 nM

## Nc1ncn([C@@H]2O[C@H](CO)[C@@H](O)[C@H]2O)c(=O)n1 [Azacitidine, azacitidine, reference compound]
[1]
  % ILS (increased life span): 37%

## CNC(=O)N1CCC(CN2CC[C@H](Cc3cn(-c4ccc(F)cc4C(=O)N(C)C(C)C)c4cncc(C)c34)C2)CC1 (single isomer, unassigned) [Compound 101]
MOLM14 cells
  IC50: 41 nM
MEIS1 mRNA
  IC50: 7 nM

## Cc1cncc2c1c(CC1CN(CC3CCNC(=O)C3)C1)cn2-c1ccc(F)cc1C(=O)N(C)C(C)C (stereo not shown) [Compound 196]
Menin/MLL
  IC50: 0.19 nM

## CC(=O)N1CCC(N2CC[C@H](Cc3cn(-c4ccc(F)cc4C(=O)N(C)C(C)C)c4cncc(C)c34)C2)CC1 [Compound 156]
MOLM14 cells
  IC50: 42 nM
MEIS1 mRNA
  IC50: 187 nM
